Test results taken from ChEMBL document CHEMBL4837181 (Eur J Med Chem, 2020).
Where a SMILES comes first, the peptide text is derived from it. [ ]: non-standard residue; d: D form. dTrp(1-Me) = Cn1cc(C[C@@H](N)C(=O)O)c2ccccc21

Legend:
[1] = Dose normalized AUC (0 to infinity) in rat at 50 mg/kg, po measured upto 72 hrs by LC-MS/MS analysis; assay type: ADME, organism-based; conditions: in vivo
[2] = Change in normalised Cmax in rat at 50 mg/kg, po measured upto 72 hrs by LC-MS/MS analysis; assay type: ADME, organism-based; conditions: in vivo
[3] = Change in normalised AUC (infinity) in rat at 50 mg/kg, po measured upto 72 hrs by LC-MS/MS analysis; assay type: ADME, organism-based; conditions: in vivo
[4] = Stability in rat plasma assessed as parent compound remaining measured after 2 hrs by LC-MS/MS analysis; assay type: ADME, cell-free; conditions: read-out: Stabilty
[5] = Dose normalized Cmax in rat at 50 mg/kg, po measured upto 72 hrs by LC-MS/MS analysis; assay type: ADME, organism-based; conditions: in vivo
[6] = Stability in mouse plasma assessed as parent compound remaining measured after 2 hrs by LC-MS/MS analysis; assay type: ADME, cell-free; conditions: read-out: Stabilty
[7] = Chemical stability of compound in simulated gastric fluid assessed as compound remaining at 5 uM measured after 24 hrs by LC-MS/MS analysis; assay type: ADME, physicochemical; conditions: read-out: Stabilty
[8] = Chemical stability of compound in PBS buffer assessed as compound remaining at pH 7.4 at 5 uM measured after 6 hrs by LC-MS/MS analysis; assay type: physicochemical; conditions: read-out: Stabilty
[9] = Chemical stability of compound in saline assessed as compound remaining at 5 uM measured after 24 hrs by LC-MS/MS analysis; assay type: physicochemical; conditions: read-out: Stabilty
[10] = Change in normalised Cmax in rat at 10 mg/kg, po measured upto 72 hrs by LC-MS/MS analysis; assay type: ADME, organism-based; conditions: in vivo
[11] = Chemical stability of compound in PBS buffer assessed as compound remaining at pH 7.4 at 5 uM measured after 24 hrs by LC-MS/MS analysis; assay type: physicochemical; conditions: read-out: Stabilty
[12] = Change in Cmax in rat at 37 umol/kg, po measured upto 72 hrs by LC-MS/MS analysis; assay type: ADME, organism-based; conditions: in vivo, at 37 µmol/kg
[13] = Stability in human plasma assessed as parent compound remaining measured after 24 hrs by LC-MS/MS analysis; assay type: ADME, cell-free; conditions: read-out: Stabilty
[14] = Chemical stability of compound in simulated intestinal fluid assessed as compound remaining at 5 uM measured after 24 hrs by LC-MS/MS analysis; assay type: ADME, physicochemical; conditions: read-out: Stabilty
[15] = Chemical stability of compound in 0.1 N aqueous HCl buffer assessed as compound remaining at pH 1 at 5 uM measured after 1.5 hrs by LC-MS/MS analysis; assay type: physicochemical; conditions: pH 1, 1.5 h
[16] = Dose normalized AUC (0 to infinity) in rat at 10 mg/kg, po measured upto 72 hrs by LC-MS/MS analysis; assay type: ADME, organism-based; conditions: in vivo
[17] = Change in AUC (infinity) in rat at 37 umol/kg, po measured upto 72 hrs by LC-MS/MS analysis; assay type: ADME, organism-based; conditions: in vivo, at 37 µmol/kg
[18] = Chemical stability of compound in 0.1 N aqueous HCl buffer assessed as compound remaining at pH 1 at 5 uM measured after 24 hrs by LC-MS/MS analysis; assay type: physicochemical; conditions: pH 1, 24 h
[19] = Chemical stability of compound in simulated intestinal fluid assessed as compound remaining at 5 uM measured after 3 hrs by LC-MS/MS analysis; assay type: ADME, physicochemical; conditions: read-out: Stabilty
[20] = Dose normalized Cmax in rat at 10 mg/kg, po measured upto 72 hrs by LC-MS/MS analysis; assay type: ADME, organism-based; conditions: in vivo
[21] = Chemical stability of compound in simulated gastric fluid assessed as compound remaining at 5 uM measured after 1.5 hrs by LC-MS/MS analysis; assay type: ADME, physicochemical; conditions: read-out: Stabilty
[22] = Stability in human plasma assessed as parent compound remaining measured after 6 hrs by LC-MS/MS analysis; assay type: ADME, cell-free; conditions: read-out: Stabilty
[23] = Change in normalised AUCinfinity in rat at 10 mg/kg, po measured upto 72 hrs by LC-MS/MS analysis; assay type: ADME, organism-based; conditions: in vivo
[24] = Change in Cmax in rat at 185 umol/kg, po measured upto 72 hrs by LC-MS/MS analysis; assay type: ADME, organism-based; conditions: in vivo, at 185 µmol/kg

AUC/dose [1]	Activity [2]	Activity [3]	remaining at 2 h [4]	Cmax/dose [5]	remaining at 2 h [6]	remaining at 24 h, 5 µM [7]	remaining at 6 h, 5 µM [8]	remaining at 24 h, 5 µM [9]	Activity [10]	remaining at 24 h, 5 µM [11]	Activity [12]	remaining at 24 h [13]	remaining at 24 h, 5 µM [14]	Stabilty [15]	AUC/dose [16]	Activity [17]	Stabilty [18]	remaining at 3 h, 5 µM [19]	Cmax/dose [20]	SMILES	other results
229 µM·h	-78%	-83%	100%	6 µM	97%															CCOC(=O)N[C@H](Cc1cn(C)c2ccccc12)C(=O)O	
5.5 µM·h	-99%	-100%	100%	0.15 µM	100%															Cn1cc(C[C@@H](NC(=O)OCC(C)(C)C)C(=O)O)c2ccccc21	
			56%		100%	78%	83%	99%	62%	65%	10%	68%	38%	64%	599 µM·h	1%	99%	64%	28 µM	Cl.Cn1cc(C[C@@H](NC(=O)CN)C(=O)O)c2ccccc21 (H-Gly-[dTrp(1-Me)]-OH)	remaining at 1.5 h, 5 µM [21]: 80%; remaining at 6 h [22]: 78%; Activity [23]: 18%
1051 µM·h	4%	-21%	0%	28 µM	0%															CC(C)OC(=O)[C@H](N)Cc1cn(C)c2ccccc12.Cl	
			95%		77%	92%	93%	100%	-3%	57%	8%	78%	96%	89%	795 µM·h	-10%	100%	96%	16.7 µM	Cl.Cn1cc(C[C@@H](NC(=O)[C@@H](N)CCCCN)C(=O)O)c2ccccc21	remaining at 1.5 h, 5 µM [21]: 97%; remaining at 6 h [22]: 96%; Activity [23]: 56%
											32%					2%				CCOC(=O)[C@@H](Cc1cn(C)c2ccccc12)NC(=O)[C@@H](N)CCSC.O=P(O)(O)O	Activity [24]: 49%
			0%		0%	58%	50%	99%	92%	29%	28%	11%	10%	37%	595 µM·h	21%	99%	34%	33.3 µM	Cl.Cn1cc(C[C@@H](N)C(=O)OCC(O)CO)c2ccccc21 (stereo partly drawn)	remaining at 1.5 h, 5 µM [21]: 62%; remaining at 6 h [22]: 33%; Activity [23]: 17%
